# Experimental data published in patent publication US20040039053A1, “Use of(-) (3-halomethylphenoxy) (4-halophenyl) acetic acid derivatives for treatment of insulin resistance, type 2 diabetes, hyperlipidemia and hyperuricemia” (priority 2000, published 2004).
# Entries after “also recorded” stand apart in the source; their conditions may differ.
# Experiments:
# [1] = biological target: T1, CYP2A6 (Homo sapiens, UniProt P11509); assay: Cytochrome P450 isoform inhibition in human hepatic microsomes, coumarin (Example 18); conditions: positive control 250 μM; VC 32.0 ± 1.4
# T1 sequence (P11509 1-494): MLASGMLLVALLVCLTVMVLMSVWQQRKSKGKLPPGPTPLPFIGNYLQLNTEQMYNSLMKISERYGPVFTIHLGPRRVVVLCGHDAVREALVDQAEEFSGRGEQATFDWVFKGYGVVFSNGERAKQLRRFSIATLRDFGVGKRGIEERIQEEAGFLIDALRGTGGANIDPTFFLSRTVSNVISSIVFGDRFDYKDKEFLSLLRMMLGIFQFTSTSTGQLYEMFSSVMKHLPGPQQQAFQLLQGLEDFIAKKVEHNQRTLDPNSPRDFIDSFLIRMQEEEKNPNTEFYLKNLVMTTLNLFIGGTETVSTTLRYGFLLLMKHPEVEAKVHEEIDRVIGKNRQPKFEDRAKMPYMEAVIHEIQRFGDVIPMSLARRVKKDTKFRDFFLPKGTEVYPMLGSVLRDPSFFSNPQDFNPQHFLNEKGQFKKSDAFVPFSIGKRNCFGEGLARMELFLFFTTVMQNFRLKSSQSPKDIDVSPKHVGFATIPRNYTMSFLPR
# [2] = test system: diabetic ob/ob mice; assay: Time course of glucose-lowering after a single oral dose in ob/ob mice (Example 8); assay type: in vivo; conditions: single oral dose 250 mg/kg; for onset and duration of glucose-lowering action, in words: 250 mg/kg
# [3] = test system: Zucker fatty rats; assay: Oral glucose challenge in Zucker fatty rats (Example 10); assay type: in vivo; conditions: racemate 100 mg/kg, enantiomers 50 and 100 mg/kg
# Experimental: (§1) Prior to treatment, rats were assigned to 6 groups based on body weight. Each treatment group consisted of 8 rats. […] The gavage volume was 10 ml/kg. All rats received an oral glucose challenge (1.9 g/kg) 5.5 hours after the treatment and 4 hours after withdrawal of the food. Blood samples were taken at 0, 15, 30, 60, 90, 120, and 180 minutes following the glucose challenge for plasma glucose measurement. […] On day 5, rats received the intravenous insulin (0.75 U/kg) 5.5 hours after the last dose and 4 hours after withdrawal of the food. Blood samples were taken at 3, 6, 9, 12, 15 and 18 minutes following the insulin injection for plasma glucose measurement.
# [4] = test system: Zucker fatty rats; assay: Short insulin tolerance test in Zucker fatty rats (Example 10); assay type: in vivo; conditions: 50 mg/kg/day for 5 days
# Experimental: as §1
# [5] = test system: Zucker Diabetic Fatty rats; assay: Lipid lowering activity in Zucker Diabetic Fatty rats (Example 11); assay type: in vivo; conditions: ZDF rats; for lowering of plasma triglyceride vs control at 7 days, in words: 37.5 mg/kg/day; for difference in plasma cholesterol between control and treated groups, in words: experiment I, 7 and 13 days
# Experimental: Male Zucker diabetic fatty (ZDF) rats were obtained from GMI Laboratories (Indianapolis, Ind.) at 9 weeks of age. Vehicle or enantiomers of halofenate administered by oral gavage on a daily basis starting at 74 days of age. Initial blood samples were obtained for analysis one day before treatment and at the indicated times in the treatment protocol. Blood was analyzed for plasma triglyceride and cholesterol by standard techniques.
# [6] = test system: ZDF rats; assay: Plasma glucose in ZDF rats, (−) versus (+) halofenate (Example 13); assay type: in vivo; conditions: 50 mg/kg oral once a day for 3 days
# Experimental: Male 8-9 week old ZDF rats were purchased from Genetic Models, Inc. (Indianapolis, Ind.). […] Rats that had 4-hour fasting plasma glucose levels between 200 and 500 mg/dL were used. […] The gavage volume was 5 ml/kg. Blood samples were taken at 5 hours post dose on day 2 and 3.
# [7] = test system: C57BL/6J db/db mice; assay: Prevention of diabetes and alleviation of hypertriglyceridemia in db/db mice (Example 15); assay type: in vivo; conditions: 150 mg/kg/day in chow, 9 weeks; for plasma triglyceride levels with age, in words: 150 mg/kg/day
# Experimental: Blood samples were taken at 8-10 AM once a week for 9 weeks under non-fasting condition. Food intake and body weight were measured every 1-3 days. Plasma glucose and triglyceride concentrations were determined calorimetrically using kits from Sigma Chemical Co (No. 315 and No. 339, St. Louis, Mo., USA). Plasma insulin levels were measured using RIA assay kit purchased from Linco Research (St. Charles, Mo.).
# [8] = test system: oxonic acid induced hyperuricemic rats; assay: Plasma uric acid in oxonic acid induced hyperuricemic rats (Example 17); assay type: in vivo; conditions: oxonic acid hyperuricemic SD rats, oral 50 mg/kg for 3 days, 100 mg/kg on day 4, 6 hours post gavage
# Description: Male SD rats, weight 275-300 g were purchased from Charles River. […] To establish a hyperuricemic state, animals were put on a diet containing 2.5% (w/w) of oxonic acid (Sigma Chemical Co, St. Louis, Mo., USA) throughout the experiment. Oxonic acid elevates plasma uric acid by inhibiting uricase. Rats were screened for plasma uric acid levels 3 days after they were placed on the diet, and those that had extreme plasma uric acid levels were excluded. Rats were assigned to one of three groups and the mean uric acid levels were equivalent in each group. […] Oxonic acid was delivered in a liquid formulation containing 0.9% (w/v) methylcellulose. The gavage and injection volumes were 5 ml/kg. Blood samples were taken at 6 hours post oral gavage on day 4. Plasma uric acid levels were determined colorimetrically using the Infinity Uric Acid Reagent (Sigma Chemical Co, St. Louis, Mo., USA).
# [9] = test system: diabetic ob/ob mice; assay: Glucose and insulin lowering on daily oral administration for 5 days in ob/ob mice (Example 9)
# Experimental: Animals were housed (4-5 mice/cage) under standard laboratory conditions at 22° C. and 50% relative humidity, and were maintained on a diet of Purina rodent chow and water ad libitum. Prior to treatment, blood was collected from the tail vein of each animal. Mice that had non-fasting plasma glucose levels between 300 and 520 mg/dL were used. Each treatment group consisted of 10 mice that were distributed so that the mean glucose levels were equivalent in each group as the start of the study. […] The gavage volume was 10 ml/kg. Blood samples were taken at 3, 6, 27, 30 and 120 hour after the first dose and analyzed for plasma glucose and insulin. The animals were fasted overnight (14 hours) before the 120 hours sampling. Plasma glucose concentrations were determined calorimetrically using glucose oxidase method (Sigma Chemical Co, St. Louis, Mo., USA). Plasma insulin concentrations were determined by using the Rat Insulin RIA Kit from Linco Research Inc. (St. Charles, Mo., USA). Significance difference between groups (comparing drug-treated to vehicle-treated) was evaluated using Student unpaired t-test.
# [10] = 250 mg/kg/day oral, listed as (−) enantiomer, 250 mg/kg/day
smiles,measurement,setting,value
"N[C@@H]1C[C@H]1c1ccccc1 (racemic) [TRAN, tranylcypromine]",Coumarin 7-HC Production,[1],0.00 ± 0.00 pmol/mg protein/min
"CC(=O)NCCOC(=O)C(Oc1cccc(C(F)(F)F)c1)c1ccc(Cl)cc1 (single isomer, unassigned; (-)) [(−) halofenate, (−) 2-acetamidoethyl 4-chlorophenyl-(3-trifluoromethylphenoxy)-acetate]",glucose lowering compared with the (+) enantiomer at 3 hour and 24 hour time points,[2],more effective and significantly different (p<0.05) from the (+) enantiomer
same,"onset and duration of glucose-lowering action, in words",[2],more rapid onset and sustained longer
same,"onset and duration of glucose-lowering action, in words",[2]; listed as (−) enantiomer,most rapid onset of action and the longest duration of action
same,"plasma glucose after oral glucose challenge, in words",[3]; single oral dose 5.5 hours before challenge,most effective in lowering the glucose; also recorded: greatest degree of glucose-lowering of all the treated animals
same,"incremental glucose area under the curve (AUC) vs control, in words",[3]; single oral dose,significant reductions in the glucose area; also recorded: Significant changes (p<0.05)
same,"insulin sensitivity (slope of decline in glucose after i.v. insulin), in words",[4],improved significantly; also recorded: significantly more insulin sensitive
same,days of treatment with significant plasma cholesterol decrease vs control,[5]; 12.5 mg/kg/day (Low dose),7 days
same,"plasma triglyceride levels, in words",[5]; 37.5 mg/kg/day (High dose),lowest triglyceride levels of all the treatment groups
same,"lowering of plasma triglyceride vs control at 7 days, in words","[5]; 37.5 mg/kg/day (High dose), listed as (−) enantiomer of halofenate",greater magnitude
same,"lowering of plasma triglyceride vs control at 7 days, in words","[5]; 37.5 mg/kg/day (High dose), listed as (−) enantiomer",significant lowering of plasma triglyceride
same,"plasma cholesterol course during treatment, in words","[5]; 13 days, racemate 50 mg/kg/day, enantiomers 25 mg/kg/day",plasma cholesterol declined with treatment
same,"extent of plasma cholesterol lowering, in words","[5]; 14 days, 37.5 mg/kg/day (High dose)",greatest extent of cholesterol lowering
same,"difference in plasma cholesterol between control and treated groups, in words",[5]; enantiomers 25 mg/kg/day,significant decrease in plasma cholesterol
same,"difference in plasma cholesterol between control and treated groups, in words","[5]; enantiomers 25 mg/kg/day, listed as (−) enantiomer",most active of the species tested
same,"plasma glucose compared to vehicle-treated animals, in words",[6],significantly reduced plasma glucose concentrations
same,"increase of plasma glucose levels with age, in words",[7],prevented or significantly delayed
same,"plasma insulin concentration with age, in words",[7],maintained the plasma insulin concentration
same,"plasma triglyceride levels with age, in words",[7],alleviated hyperlipidemia
same,"plasma triglyceride levels with age, in words",[7]; listed as (−) Halofenate,alleviated the increase of plasma triglyceride concentration
same,"plasma uric acid levels vs vehicle, in words",[8],significantly reduced plasma uric acid levels
same,"overnight fasting plasma insulin after 5 days, in words","[9]; 125 mg/kg/day oral, listed as (−) enantiomer, 125 mg/kg/day",Significantly lower plasma insulins
same,time points with significant plasma glucose reduction vs control,"[9]; 250 mg/kg/day oral, 250 mg/kg/day",also active at 3 hours
same,"overnight fasting plasma insulin after 5 days, in words",[9]; [10],Significantly lower plasma insulins
same,time points with reduced plasma insulin vs control,[9]; [10],greatest extent of reduced plasma insulin was noted at 27 and 30 hours
